The record followed here is EP1101492A1, “NOVEL REMEDIES FOR ALLERGIC DISEASES” (FUJI YAKUHIN KOGYO KABUSHIKI KAISHA, priority 1998, dated 2000).

One series in a line: Body weight gain in mice. The conditions noted are these: test compounds 60 mg/kg s.c., prednisolone 10 mg/kg i.p., once a day for 6 days (Days 0-5), average ± standard deviation.
A further series deals with allergic peritonitis. Briefly: Allergic peritonitis induced with ovalbumin (peritoneal exudate cells). In kind it is in vivo, Balb/c mice. Particulars: ovalbumin challenge. The method, then: Twenty four hours after induction, mice were sacrificed under ether […] and each penitoneal cavity was lavaged twice or thrice with a washout medium (total volume: 5 mL, physiological saline containing 10 units/mL of heparin). Peritoneal exudate cells (PEC) were harvested in a siliconized glass tube. The retrieved washout medium was measured for its yield (mL) and the number of exudate cells therein by using Turk solution and counting on a haemocytometer and a total number of PEC was calculated. An aliquot thereof (an extent of approximately 20,000 cells of PEC) was taken. Specimens for staining were prepared using Cytospin 3 (CHANDON), and PEC was stained with Dif-Quick solution (International Reagents Corporation). After staining, PEC was subjected to fractional counts under a microscope with classification into eosinophils, neutrophils, lymphocytes/macrophages and basophils based on their form and stain nature (more than 500 PEC per specimen were randomly counted). […] After counting, intraperitoneal exudation inhibition rates were calculated by the following formula and expressed as the therapeutic efficacies: Inhibition Rate (%) =[1 -((PEC in Sensitized/Drug-Treated Mouse) - (PEC in Unsensitized/Saline-Treated Mouse))/((PEC in Sensitized/Saline-Treated Mouse) - (PEC in Unsensitized/Saline-Treated Mouse))]× 100 [formula]
A physiological saline solution containing ovalbumin (0.25 mg/mL) and an aluminum hydroxide gel (4 mg/mL) was administered subcutaneously to male Balb/c mice (7 weeks old, 20 to 23 g, purchased from JAPAN SLC, Inc.) twice at one week interval at a single dose of 0.4 mL for sensitization. On Day 14 after the initial sensitization, an antigen solution for induction (2.5 µg/mL) was administered intraperitoneally to each animal at a dose of 0.4 mL to raise allergic peritonitis. Compound No. 130 (30 mg/kg) or a negative control solvent, physiological saline (10 mL/kg), was administered intraperitoneally to each animal 5 minutes prior to induction, 3 and 6 hours post-induction.
Similarly to Example 24, the peritoneal cavities were lavaged to retrieve PEC. The drained liquids were measured for their yield and total PEC number therein. In the same manner as in Example 24, PEC was stained and subjected to fractional counting under a microscope based on their form. […] Similarly to Example 24, basophils and neutrophils were excluded from subjects to be examined. In the same manner as in Example 24, intraperitoneal exudation inhibition rates were calculated and expressed as the therapeutic efficacies.
In the same manner as in Example 25, male Balb/c mice were sensitized with ovalbumin and an aluminum hydroxide gel, and, on Day 14 after the initial sensitization, treated with an antigen solution to raise allergic peritonitis. Compound No. […]
Similarly to Example 24, the peritoneal cavities were lavaged to retrieve PEC 24 hours after induction. The drained liquids were measured for their yield and total PEC number therein.

Series [1] concerns guinea pig allergic rhinitis models. Briefly: Allergic rhinitis model: nasal airway resistance. The conditions noted are these: 15 mg/kg s.c. one hour prior to rhinitis-induction; N=5; recorded 20 minutes after antigen-challenge. It is filed as in vivo, Guinea pigs. The method, then: Guinea pigs (male, Std:Hartley, 3 weeks old) were housed and fed in a aluminum cage at a rate of up to 5 animals per cage. After acclimatization for 1 week, the guinea pigs were administered intravenously with an anti-ovalbumin antibody (Nihon Bioresearch Inc., Hajima Institute; antibody titer by a 3-hour homologous passive cutaneous anaphylaxis reaction, 1 : 8192) prepared according to the Orange & Moore method (Orange, R. P. and Moore, E. G., The Journal of Immunology 116: p.392-397, 1976) into their auricle vein at a dose of 0.3 mL/animal for passive sensitization. Twenty four to twenty six hours after sensitization under conditions of fast and free access to drinking water, the sensitized guinea pigs were anesthetized with urethane (1.2 g/kg, intraperitoneal administration), fixed in a supine position, and mediad excised cervically to expose tracheas. […] Variations of the ventilatory overflow were quantitatively recorded on a recticoder (RECTI-HORIZ-8K, Nippon Denki Sanei K.K.) for 20 minutes after antigen-challenge.
Wave height (cm) was measured on recorded papers and a nasal airway resistance value was calculated according to the following formula: Percent Increase (%) in Nasal Airway Resistance =((Observed Value) - (Value prior to Administration))/((Complete Obstruction)- (Value prior to Administration))× 100 [formula] […]

In another series the test system is NC/Jic mice. The series can be described thus: Spontaneously manifested allergic dermatitis in NC/Jic mice (ointment). In kind it is in vivo. The method, then:
Compound No. 130 was well blended with an equivalent mixture of polyethylene glycol 400 and polyethylene glycol 4000 to give an approximately homogeneous product. Thus, an ointment containing the test compound at a rate of 0.1% was prepared. For control groups, an ointment base alone was employed.
Male NC/Jic mice (body weight, 24.1 to 31.9 g; age, 12 to 24 weeks old; supplier, Clea Japan, Inc.) were checked for their health after purchase. Immediately after the health check, the mice were housed under conventional conditions until dermatitis occurred. Mouse heads surrounding auricle portions were observed by eye once daily during the preparatory housing and, after a start in painting with ointments, once daily prior to painting. The severity of spontaneous dermatitis was scored according to a pre-assigned sore table (Table 8) for the observation of dermatitis. Animals seriatim used in the experiment were selected from those showing signs of dermatitis with score 1 or 2 for 3 consecutive days or longer.
The ointment was warmed to about 37°C prior to administration, and open-painted onto diseased sites at 100 mg/dosage/day. Seven weeks were set as a drug application period.

Where [2] appears, read: 30 mg/kg i.p. 5 minutes prior to induction, 3 and 6 hours post-induction.
Where [3] appears, read: 30 mg/kg s.c. 6 hours and 5 minutes prior to induction, 24 hours after induction.

Values joined by “and” are separate entries in the source; they are usually repeats but may differ in a detail not shown here. Equal entries are not always repeated.

Description for Body weight gain in mice: Accordingly, for assessing the side-effect each of the following test compounds an action on body weight gains was examined.
Next the mice were measured for their body weight. Each body weight gain was calculated on Days 5, 7 and 10 post-administration based on the body weight just prior to administration.

Turning to `CNC(=O)[C@H](Cc1ccc(NC(=N)N)cc1)NC(=O)[C@H](CC(C)C)C(CCCc1ccccc1)C(=O)NO` (single isomer, unassigned) [Compound No. 130, N-[4-(N-Hydroxyamino)-2(R)-isobutyl-3(R or S)-(3-phenyltrimethylene)succinyl)-L-4'-guanidophenylalanine-N-methylamide 1 acetate], in “Body weight gain in mice” (non-administered 0.50± 0.23), the “Body Weight Gain, Observation Day 5” value amounted to 0.57± 0.61. Moreover, the “Body Weight Gain, Observation Day 7” value in “Body weight gain in mice” (non-administered 0.80± 0.48) is 0.77± 0.55. Moreover, in the series “Body weight gain in mice” (non-administered 1.07± 0.58), the “Body Weight Gain, Observation Day 10” value stood at 1.20± 0.26. Moreover, in the series with allergic peritonitis (setting [2]), the “inhibition of infiltration of eosinophils into the peritoneal cavity” value is listed as 56.3%, the “inhibition of infiltration of lymphocytes/macrophages into the peritoneal cavity” value stood at 74.9% and the “reduction of total PEC numbers” value is listed as 70.7%. In the series with allergic peritonitis (setting [3]), the “inhibition of infiltration of eosinophils into the peritoneal cavity” value is 38.6%, the “inhibition of infiltration of lymphocytes/macrophages into the peritoneal cavity” value was 91.2% and the “reduction of total PEC numbers” value was determined as 68.5%. For the same molecule, the “increase in nasal airway resistance due to antigen challenge (FIG. 15)” value in series [1] is recorded as “markedly ameliorates an increase in nasal airway resistance”. Further, the “Dermatitis Score (Average ± S. D.*)” value in the series on NC/Jic mice (0.1 % ointment, 100 mg/dosage/day for seven weeks, score (0-4) on Day 49, 3 animals, ointment base 3.7 ± 0.6) turned out to be 2.3 ± 1.5. For the same molecule, the “scratching actions (individual animals)” value in the series with NC/Jic mice (0.1% ointment, counted for 30 minutes before painting, Days 47 to 48, ointment base 126, 138, 206) was 19 scratching actions and 81 scratching actions and 177 scratching actions. The “scratching actions (average)” value with NC/Jic mice (0.1% ointment, counted for 30 minutes before painting, Days 47 to 48, ointment base average 157) amounted to 92 scratching actions.
